These results are taken from ChEMBL document CHEMBL5042479, “Synthesis and Characterization of New V1A Antagonist Compounds: The Separation of Four Atropisomeric Stereoisomers” (J Med Chem, 2021).

The target in series [1] is T1, Vasopressin V2 receptor (Homo sapiens, UniProt P30518). Put plainly: Displacement of [3H]-labelled arginine-vasopressin from human V2 receptor expressed in human 1321N1 cell membranes at 1 uM incubated for 60 mins by radioligand binding assay. The following applies: Membrane.
Series [2] concerns the target T1, Vasopressin V2 receptor. The series is described as follows: Displacement of [3H]-arginine-vasopressin from human V2 receptor expressed in human 1321N1 cell membranes incubated for 60 mins by radioligand binding assay. More on the design: species or system Membrane. (In general: Displacement assays read how much labelled ligand stays bound in the presence of the test substance.)

A short description of series [3]: Intrinsic clearance in mouse liver microsomes in presence of reduced NADPH. For orientation: Liver microsomes are a subcellular fraction often used to study metabolism.
Series [4] is described as follows: Intrinsic clearance in rat liver microsomes in presence of reduced NADPH.
Series [5] in a line: Apparent permeability across apical to basolateral side in mouse Caco-2 cells. The settings on record: human.
Another series in a line: physchem. The settings on record: PBS, pH 7.4.
A short description of series [6]: Intrinsic clearance in human liver microsomes in presence of reduced NADPH.
A short description of series [7]: Permeability directional ratio in mouse Caco-2 cells. The following applies: human.
In another series the test system is 1321N1. Put plainly: Selectivity ratio of Ki for human V2 receptor expressed in human 1321N1 cell membranes to Ki for human V1A receptor expressed in human 1321N1 cell membranes. It counts as cell-based.
Series [8] has as its target T2, Vasopressin V1a receptor (Homo sapiens, UniProt P37288). The series is described as follows: Inhibition of human V1A receptor expressed in human 1321N1 cells assessed as calcium mobilization by fluorescent plate reader. It counts as functional, cell-based. (Calcium assays in cells follow changes in intracellular calcium, usually with a dye or a luminescent sensor.)
Target sequence in this assay (P37288 whole entry): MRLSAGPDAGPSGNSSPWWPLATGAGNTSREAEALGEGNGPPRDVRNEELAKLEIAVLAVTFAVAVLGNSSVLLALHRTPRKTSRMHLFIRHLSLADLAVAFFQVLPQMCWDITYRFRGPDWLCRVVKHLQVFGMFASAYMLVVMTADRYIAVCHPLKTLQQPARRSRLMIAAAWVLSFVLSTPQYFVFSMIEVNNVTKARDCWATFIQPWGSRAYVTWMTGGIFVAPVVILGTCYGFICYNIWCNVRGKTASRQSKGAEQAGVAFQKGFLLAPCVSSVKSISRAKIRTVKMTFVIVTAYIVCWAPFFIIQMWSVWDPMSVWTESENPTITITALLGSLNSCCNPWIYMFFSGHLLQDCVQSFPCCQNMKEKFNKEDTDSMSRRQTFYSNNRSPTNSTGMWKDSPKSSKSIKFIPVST

Series [9] deals with T2, Vasopressin V1a receptor. Put plainly: Displacement of [3H]-arginine-vasopressin from human V1A receptor expressed in human 1321N1 cell membranes incubated for 60 mins by radioligand binding assay. More on the design: species or system Membrane.
Target sequence in this assay (P37288 whole entry): as above
In series [10] the target is T2, Vasopressin V1a receptor. The series is described as follows: Displacement of [3H]-labelled arginine-vasopressin from human V1A receptor expressed in human 1321N1 cell membranes at 5 nM incubated for 60 mins by radioligand binding assay. The following applies: Membrane.
Target sequence in this assay (P37288 whole entry, looked up): as the sequence (P37288 whole entry) above

Molecules are shown by their SMILES. ≈ marks a conversion by molar mass, not a printed value.

T1 sequence (P30518 whole entry): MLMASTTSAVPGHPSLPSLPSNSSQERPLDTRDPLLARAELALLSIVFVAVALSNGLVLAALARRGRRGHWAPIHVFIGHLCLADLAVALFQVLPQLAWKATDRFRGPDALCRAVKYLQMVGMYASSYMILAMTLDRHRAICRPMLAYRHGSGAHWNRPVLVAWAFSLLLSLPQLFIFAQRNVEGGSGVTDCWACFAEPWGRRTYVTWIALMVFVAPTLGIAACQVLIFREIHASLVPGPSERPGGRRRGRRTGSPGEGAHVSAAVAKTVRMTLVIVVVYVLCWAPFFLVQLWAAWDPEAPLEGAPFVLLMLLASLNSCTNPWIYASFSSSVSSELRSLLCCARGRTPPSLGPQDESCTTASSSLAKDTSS
Description for physchem: Kinetic solubility of compound in PBS at pH 7.4 incubated for 2 hrs by HPLC-MS analysis

As a reminder, the inhibition is the relative decrease from the control value, in per cent. For the compound `CN1Cc2cc(Cl)ccc2-n2c(nnc2C2CCN(c3ccccn3)CC2)C1`, the inhibition at Vasopressin V2 receptor [1] worked out at 13%.

A word on the Ki: it is the dissociation constant of the complex between target and ligand, obtained from inhibition or displacement. Usually microsomal CLint stands for the rate of metabolic loss divided by the concentration. As a reminder, the Papp A→B is how fast a substance crosses the layer from the apical side. The solubility (kinetic) is solubility judged after dilution from a stock solution rather than from solid. One may read the efflux ratio as the permeability from basolateral to apical divided by that in the opposite direction, in the common usage. On to `O[C@@H]1Cc2cc(Cl)ccc2-n2c(nnc2[C@H]2CC[C@H](Oc3ccccn3)CC2)C1`, for which the inhibition constant (Ki) at Vasopressin V2 receptor [2] stood at 0.2 µM. In addition, the microsomal CLint worked out at 5.1 µL/min/mg in series [3], 16.6 µL/min/mg in series [4] and 3.2 µL/min/mg in series [6]. Also, in series [5], the Papp A→B was determined as 225 nm/s. This compound gave a kinetic solubility at 2 h in “physchem” of 95.1 µM (≈ 39.1 µg/mL). Besides, the efflux ratio in series [7] is 3.7. In addition, the Selectivity ratio in the series with 1321N1 worked out at 667.

At Vasopressin V2 receptor [2], `O[C@H]1Cc2cc(Cl)ccc2-n2c(nnc2[C@H]2CC[C@H](Oc3ccccn3)CC2)C1` yielded a Ki of 0.9 µM. For the same compound, the figures for the microsomal CLint in series [3], in series [4] and in series [6] were 6.7 µL/min/mg, 56.2 µL/min/mg and 4.1 µL/min/mg, respectively. Also, in [5], the Papp A→B turned out to be 205 nm/s. In addition, the solubility (kinetic) at 2 h in “physchem” was determined as 98.9 µM (≈ 40.6 µg/mL). Besides, in series [7], the efflux ratio amounted to 4.7. The Selectivity ratio in the series on 1321N1 stood at 3000.

A word on the IC50: it is the point on the concentration scale where inhibition reaches its midpoint. Take `Cc1ccc2c(c1)CC(O)Cc1nnc([C@H]3CC[C@H](Oc4ccccn4)CC3)n1-2` (stereo partly specified): the Ki is 1.07 µM at Vasopressin V2 receptor [2] and 0.0004 µM on Vasopressin V1a receptor [9]. The IC50 on Vasopressin V1a receptor [8] came to 0.0019 µM.

For `CN(C)CCn1cc(C(=O)N2CCC3(CC2)OCc2ccccc23)c2ccc(Cl)cc21`, at Vasopressin V2 receptor [1], the inhibition is -6%.

Consider `Cc1cccc2c1-n1c(nnc1[C@H]1CC[C@H](Oc3ccccn3)CC1)C[C@@H](O)C2` (atropisomer aS) [listing 1 of 2 here], for which, on Vasopressin V2 receptor [1], the inhibition is 0%.

For the compound `Cc1cccc2c1-n1c(nnc1[C@H]1CC[C@H](Oc3ccccn3)CC1)C[C@@H](O)C2` (atropisomer aS) [listing 2 of 2 here], at Vasopressin V1a receptor [9], the affinity, expressed as Ki, was 2.64 µM.

Compound `Cc1cccc2c1-n1c(nnc1[C@H]1CC[C@H](Oc3ccccn3)CC1)C[C@H](O)C2` (atropisomer aR) [listing 1 of 2 here] showed a Ki at Vasopressin V1a receptor [9] of 0.011 µM.

In the case of `Cc1ccc2c(c1)-n1c(nnc1[C@H]1CC[C@H](Oc3ccccn3)CC1)CC(O)C2` (stereo partly specified), the IC50 on Vasopressin V1a receptor [8] worked out at 0.39 µM. Besides, the inhibition on Vasopressin V2 receptor [1] stood at 3%. This compound also gave a Ki on Vasopressin V1a receptor [9] of 0.034 µM.

For the compound `OC1Cc2cc(Cl)ccc2-n2c(nnc2[C@H]2CC[C@H](Oc3ccccn3)CC2)C1` (stereo partly specified), the microsomal CLint was 6.3 µL/min/mg in series [3], 38 µL/min/mg in series [4] and 0.4 µL/min/mg in series [6]. In series [5], the Papp A→B was determined as 203 nm/s. In “physchem”, this compound came in with a solubility (kinetic) at 2 h of 97.5 µM (≈ 40.1 µg/mL). Further, in series [7], the efflux ratio amounted to 6.2. Besides, the Selectivity ratio in the series on 1321N1 worked out at 1570.

Take `OC1Cc2ccc(Cl)cc2-n2c(nnc2[C@H]2CC[C@H](Oc3ccccn3)CC2)C1` (stereo partly specified): at Vasopressin V1a receptor [10], the inhibition worked out at 26%.

As to `Cc1cccc2c1-n1c(nnc1[C@H]1CC[C@H](Oc3ccccn3)CC1)C[C@H](O)C2` (atropisomer aS) [listing 1 of 2 here], the affinity at Vasopressin V1a receptor [9] corresponds to a Ki of 0.146 µM.

As for `Cc1cccc2c1CC(O)Cc1nnc([C@H]3CC[C@H](Oc4ccccn4)CC3)n1-2` (stereo partly specified), the inhibition at Vasopressin V2 receptor [1] was -9%. This compound also returned a Ki at Vasopressin V1a receptor [9] of 0.0088 µM.

Consider `Clc1ccc2c(c1)CCCc1nnc([C@H]3CC[C@H](Oc4ccccn4)CC3)n1-2`, for which the figures for the CLH in [3], in series [4] and in series [6] were 94 µL/min/mg, 124 µL/min/mg and 7 µL/min/mg, respectively.

For the compound `OC1Cc2c(Cl)cccc2-n2c(nnc2[C@H]2CC[C@H](Oc3ccccn3)CC2)C1` (stereo partly specified), at Vasopressin V1a receptor [9], the Ki amounted to 0.012 µM.

For `Cc1cccc2c1-n1c(nnc1[C@H]1CC[C@H](Oc3ccccn3)CC1)C[C@H](O)C2` (atropisomer aR) [listing 2 of 2 here], the inhibition at Vasopressin V2 receptor [1] was -3%.

As to `Cc1cccc2c1-n1c(nnc1[C@H]1CC[C@H](Oc3ccccn3)CC1)C[C@H](O)C2` (atropisomer aS) [listing 2 of 2 here], the inhibition at Vasopressin V2 receptor [1] is -5%.

In the case of `Cc1cccc2c1-n1c(nnc1[C@H]1CC[C@H](Oc3ccccn3)CC1)C[C@@H](O)C2` (atropisomer aR) [listing 1 of 2 here], the inhibition at Vasopressin V2 receptor [1] was -6%.

As to `Cc1cccc2c1-n1c(nnc1[C@H]1CC[C@H](Oc3ccccn3)CC1)C[C@@H](O)C2` (atropisomer aR) [listing 2 of 2 here], at Vasopressin V1a receptor [9], the affinity, expressed as Ki, was 0.0063 µM.
